From patent publication US20120059051A1, “ORAL COMPOSITION CONTAINING EGCG AND LYCOPENE” (DSM IP ASSET B.V., priority 2006, published 2012)

Columns and labels:
skin collagenases = conditions: literature statement; cited from earlier work
MMP-1 = assay: Inhibition of UV-A induced expression of matrix metalloproteinase-1 (real time PCR) in primary human dermal fibroblasts; type: cell-based; conditions: skin fibroblasts; for % inhibition: inhibition of UV-A induced MMP-1 expression, 30 J/cm^2 UVA1; for MMP-1 expression relative to UV-A only treated cells: 30 J/cm^2 UVA1, MMP-1 RNA 24 hrs after irradiation, UV-A only = 100%
Method: Primary human dermal fibroblasts were cultured in EMEM without glutamine (Earle's Minimum Essential Medium), supplemented with antibiotics/antimycotics, 2 mM L-glutamine and 7.5% fetal calf serum at 37° C.[…] and grown to 100% confluency. Forty-eight hours prior to irradiation the cells were preincubated with the desired substances in EMEM (with AB/AM, L-Glutamine and 2% FCS. After 24 hours the medium was replaced by fresh medium with substances (fresh prepared). For irradiation, the medium was removed and after 6 wash steps with phosphate-buffered saline (PBS) replaced by phosphate-buffered saline (PBS). The plate was then exposed to 30 J/cm^2 UVA1. The UVA1 output was approximately 150 mW/cm^2. After irradiation the phosphate-buffered saline in the cell microplate was exchanged against culture medium (+7.5% FCS) with the substances (fresh prepared) and the cells were incubated in a CO2-incubator for further 24 hrs (MMP-1 determination). The culture medium was removed, the cells were rinsed with phosphate-buffered saline and the whole plate was frozen in liquid nitrogen. Total RNA was isolated using RNeasy Total RNA Kits (Qiagen, Hilden; Germany). The RNA concentration was determined via photometric measurement at 260/280. Aliquots of total RNA (75 ng) were applied for cDNA-Synthesis using Superscript™ First-Strand synthesis system for RT-PCR. Two samples for each compound were analyzed. The PCR reactions were carried out on an Opticon 1 (MJ Research, Waltham, Mass., USA) using SYBR Green® PCR Master Mix (Applied Biosystems, Darmstadt, Germany). For comparison of relative expression in real time PCR control cells and treated cells the 2 ^(−delta delta C(T)) method was used.

UVA-induced collagenases = conditions: literature statement; cited from earlier work
UVA-induced MMPI = conditions: literature statement; increase only prevented in combination with vitamin E; cited from earlier work

Compound	effect on various skin collagenases (skin collagenases)	% inhibition (MMP-1) [%]	MMP-1 expression relative to UV-A only treated cells (MMP-1) [%]	effect on UVA-induced collagenases (UVA-induced collagenases)	effect on UVA-induced MMPI (UVA-induced MMPI)
(−)-epigallocatechin gallate [EGCG]	suppress	13	87	–	–
CC1=C(/C=C/C(C)=C/C=C/C(C)=C/C=C/C=C(C)/C=C/C=C(C)/C=C/C2=C(C)CCCC2(C)C)C(C)(C)CCC1 [betacarotene]	–	–	–	repress	–
CC(C)=CCC/C(C)=C/C=C/C(C)=C/C=C/C(C)=C/C=C/C=C(C)/C=C/C=C(C)/C=C/C=C(\C)CCC=C(C)C [Lycopene, lycopene]	–	65	35	–	further increase
